Results as given in ChEMBL document CHEMBL5113423, “Discovery and preclinical profile of sudapyridine (WX-081), a novel anti-tuberculosis agent” (Bioorg Med Chem Lett, 2022).
Converted amounts (≈) assume the structure as drawn.

Each compound was assayed on Mycobacterium tuberculosis (assay: Antimycobacterial activity against multidrug-resistant Mycobacterium tuberculosis assessed as mycobacterial growth inhibition).
Type: functional

First: COc1nc(-c2ccc(Cl)cc2)ccc1[C@@H](c1ccccc1)[C@@](O)(CCN(C)C)c1cccc2ccccc12
Second: COc1nc2ccc(Br)cc2cc1[C@@H](c1ccccc1)[C@@](O)(CCN(C)C)c1cccc2ccccc12 [BEDAQUILINE]
The MIC50 of the first is 3.5-fold higher: 0.111 µg/mL (≈ 0.207 µM) for the first, 0.032 µg/mL (≈ 0.0576 µM) for the second.

First: NNC(=O)c1ccncc1 [ISONIAZID]
Second: CO[C@H]1/C=C/O[C@@]2(C)Oc3c(C)c(O)c4c(O)c(c(/C=N/N5CCN(C)CC5)c(O)c4c3C2=O)NC(=O)/C(C)=C\C=C\[C@H](C)[C@H](O)[C@@H](C)[C@@H](O)[C@@H](C)[C@H](OC(C)=O)[C@@H]1C [RIFAMPIN]
The MIC50 of the first is lower: 4.21 µg/mL (≈ 30.7 µM) for the first, > 40 µg/mL for the second.

With NC[C@H]1O[C@H](O[C@H]2[C@H](O)[C@@H](O[C@H]3O[C@H](CO)[C@@H](O)[C@H](N)[C@H]3O)[C@H](N)C[C@@H]2N)[C@H](O)[C@@H](O)[C@@H]1O [KANAMYCIN] the MIC50 was 1.24 µg/mL (≈ 2.55 µM).

Compared with COc1nc(-c2ccc(Cl)cc2)ccc1[C@@H](c1ccccc1)[C@@](O)(CCN(C)C)c1cccc2ccccc12, COc1nc2ccc(Br)cc2cc1[C@@H](c1ccccc1)[C@@](O)(CCN(C)C)c1cccc2ccccc12 [BEDAQUILINE] is 4.2-fold lower in MIC90: 0.465 µg/mL (≈ 0.866 µM) for the first, 0.111 µg/mL (≈ 0.2 µM) for the second.

NNC(=O)c1ccncc1 [ISONIAZID] and CO[C@H]1/C=C/O[C@@]2(C)Oc3c(C)c(O)c4c(O)c(c(/C=N/N5CCN(C)CC5)c(O)c4c3C2=O)NC(=O)/C(C)=C\C=C\[C@H](C)[C@H](O)[C@@H](C)[C@@H](O)[C@@H](C)[C@H](OC(C)=O)[C@@H]1C [RIFAMPIN] cannot be ordered by MIC90: > 40 µg/mL for the first, > 40 µg/mL for the second.

NC[C@H]1O[C@H](O[C@H]2[C@H](O)[C@@H](O[C@H]3O[C@H](CO)[C@@H](O)[C@H](N)[C@H]3O)[C@H](N)C[C@@H]2N)[C@H](O)[C@@H](O)[C@@H]1O [KANAMYCIN] was tested, and the MIC90 was > 40 µg/mL.
